# Measured values from patent US6265376A, “Insecticidal plectoxins from plectreurys tristis” (Novartis AG, priority 1995, dated 2001).
# Columns and labels:
# insects = experiment: Insect toxicity (paralysis and/or death of test larvae), general statements; type: in vivo; settings: injection of a number of different insects
# Procedure: (§1) Polypeptides isolated from or those showing substantial homology to those isolated from the venom of Plectreurys tristis are useful as insecticidal agents. In particular, they are useful insecticidal agents against insects of the order Lepidoptera, for example, Heliothis virescens, Autographa californica, and the insects of the genus Spodoptera. Both the purified plectoxin and viruses transformed to produce the plectoxin are assayed for bioactivity on larvae including: tobacco hornworms (Manduca sexta), tobacco budworms (Heliothis virescens) and beet armyworm (Spodoptera exizua).
# M. sexta = experiment: Injection of plectoxins into insect larvae (toxicity); type: in vivo, Manduca sexta
# Procedure: as §1
# (§2) Venom from P. tristis is obtained from Spider Pharm, Black Canyon City, Az. Crude venom (approximately 200 μl per injection) is fractionated by reversed-phase liquid chromatography (LC) using the following conditions: a Perkin Elmer Model 410 Bio solvent delivery system; 5 ml injection loop; Hewlett Packard Model 1040M diode array detector at 220 and 280 nm; Aquapore ODS column, 22×1 cm (Brownlee Labs, Santa Clara, Calif.); 4.5 ml/min; acetonitrile (MeCN) in a constant 0.1% trifluoroacetic acid, 0% MeCN for 5 min, then linear gradient of 0 to 60% MeCN over 55 min. Similar fractions from several runs are combined and portions are removed for bioassays. […]
# H. virescens = experiment: as above; type: in vivo, Heliothis virescens
# Procedure: as §1, §2
# S. exigua = experiment: as above; type: in vivo, Spodoptera exigua
# Procedure: as §1
# Various plectoxins isolated from venom are injected into three different insect larvae. […] ED50 is the dose which is effective to paralyze 50% of the larvae at one hour. Values with an asterisk denote duplicate analysis with samples from different milking lots.
# [1] = dose paralyzing 50% of larvae at one hour
# [2] = lethal dose for 50% of treated larvae at 24 hours
substance,measurement,setting,value
Plt-VI (AVKCIGWQETCNGNLPCCNECVMCECNIMGQNCRCNHPKATNECES),paralytic activity upon injection,insects,very high level of paralytic activity
same,ED50,M. sexta; [1],0.10 µg/g
same,LD50,M. sexta; [2],0.15 µg/g
same,ED50,H. virescens; [1],0.21 µg/g
same,LD50,H. virescens; [2],1.2 µg/g
same,ED50,S. exigua; [1],0.32 µg/g
same,LD50,S. exigua; [2],> 10 µg/g
